Data from US10100027B2, “Benzofuran analogue as NS4B inhibitor” (priority 2014, dated 2018).

Assays:
Format in all cases: cell-based
[1] = tested on: HCV genotype 1a (HCV-1a) replicon cells; test: HCV genotype 1a replicon cell assay (luciferase, Bright-Glo); details: Hepatitis C virus, 72 h, HCV-1a (H77) replicon cells, 3 days
Description: (§1) The EC50 and CC50 values of anti-HCV compounds were determined by HCV genotype 1a (HCV-1a) and 1b (HCV-1b) stable transfected replication (replicon) cells. The source of genotype 1a replicon is H77 clones containing K1691R, K2040R and S2204I adaptive mutations. The source of genotype 1b replicon is Con1 clones containing E1202G, T1280I and K1846T adaptive mutations.
(§2) HCV 1a (HCV-1a) and 1b (HCV-1b) gene subtype replicon system contains the related HCV gene subtype non-structural protein gene, G418 resistance gene NEO and luciferase gene, which results in that HCV related protein and luciferase can be stably expressed in cells. By detecting the level of expression of luciferase gene, the level of HCV replication can be determined. Therefore, the system is used as a model for screening the activity of anti-HCV compound in vitro.
(§3) The compound powder was dissolved in 100% DMSO. Then the compound was diluted 5 times with 6 points, and added into the cell plate with Echo liquid handler. Ensure the final concentration of DMSO was 0.5%. Each compound was tested in duplicate.
(§4) 4) Diluting cells to 8×10^4 cells/mL with the culture medium, adding the diluted cells into the compound-containing 96-well plate (Greiner, Cat. #655090) (100 μL/well, 8000 cells/well) with automatic liquid separator (Thermo Scientific). Then place into a 37° C., 5% CO2 incubator for 3 days. Cell control well: no compound, only containing 0.5% DMSO.
(§5) 6) Then adding luciferase substrate Bright-Glo, after incubation for 5 minutes, detecting the luciferase activity by microplate reader Envison (wavelength>700 nm); analyzing the anti-HCV inhibitory activity of the compounds according to luminescence data, which was used to calculate EC50 values.
(§6) The EC50 or CC50 values were obtained by nonlinear fitting regression on inhibition percentage (inh %) data with GraphPad Prism software.

[2] = tested on: HCV genotype 1b (HCV-1b) replicon cells; test: HCV genotype 1b replicon cell assay (luciferase, Bright-Glo); details: Hepatitis C virus, 72 h, HCV-1b (Con1) replicon cells, 3 days
Description: as §1, §2, §3, §4, §5, §6

[3] = Cytotoxicity in HCV replicon cells (Cell Titer-fluor)
Description: as §1, §3, §4
5) Adding fluorescence substrate Cell Titer-fluor to the cell well, after incubation for 30 minutes, detecting the signal by microplate reader Envison (Ex at 405 nm and read at 515 nm). The effect of the compounds on the cytotoxicity of HCV replicon cells was analyzed according to the fluorescence data, which was used to calculate the CC50 values.
as §6

| SMILES | EC50 [1] [nM] | EC50 [2] [nM] | CC50 at 3 days [3] [nM] |
| --- | --- | --- | --- |
| O=C(c1nc2c(C(F)(F)F)cc(C3CC3)cn2c1Cl)N1CCN(C2CCCC2)C(=O)N1 [YA_0338] | 0.1 to 100 | 0.1 to 100 | > 3000 |
| O=C1NN(C(=O)c2nc3c(C(F)(F)F)cc(C4CC4)cn3c2Cl)CCN1CC(F)F [YA_0358] | 100 to 1000 | 100 to 1000 | > 3000 |
| O=C(c1nc2c(C(F)(F)F)cc(C3CC3)cn2c1Cl)N1CCN([C@H]2C[C@H](O)C2)C(=O)N1 [YA_0359] | – | – | > 3000 |
| CC(C)N1CCN(C(=O)c2nc3c(C(F)(F)F)cc(C4CC4)cn3c2Cl)NC1=O [YA_0360] | 0.1 to 100 | 0.1 to 100 | > 3000 |
| O=C1NN(C(=O)c2nc3c(C(F)(F)F)cc(C4CC4)cn3c2Cl)CCN1CC(F)(F)F [YA_0361] | – | – | > 3000 |
| O=C(c1nc2c(C(F)(F)F)cc(C3CC3)cn2c1Cl)N1CCN(C2CC2)C(=O)N1 [YA_0362] | – | – | > 3000 |
| O=C(c1nc2c(C(F)(F)F)cc(C3CC3)cn2c1Cl)N1CCN([C@H]2CC[C@H](O)CC2)C(=O)N1 [YA_0363] | 0.1 to 100 | 0.1 to 100 | > 3000 |
| O=C(c1nc2c(C(F)(F)F)cc(C3CC3)cn2c1Cl)N1CCN(C2CCC(F)(F)CC2)C(=O)N1 [YA_0366] | 0.1 to 100 | 0.1 to 100 | > 3000 |
| O=C(c1nc2c(C(F)(F)F)cc(C3CC3)cn2c1Cl)N1CCN(C2CC(F)(F)C2)C(=O)N1 [YA_0367] | 0.1 to 100 | 0.1 to 100 | > 3000 |
| Cc1cc(C(F)(F)F)c2nc(C(=O)N3CCN(C(C)(C)C)C(=O)N3)c(Cl)n2c1 [YA_0368] | 0.1 to 100 | 100 to 1000 | > 3000 |
| Cc1nnc(C23CCC(NC(=O)c4cc5cc(C(C)C)cc(C(F)(F)F)c5o4)(CC2)CC3)o1 [YD_0019] | – | 100 to 1000 | > 3000 |
| CC(C)c1cc(C(F)(F)F)c2oc(C(=O)N3CCN(C4CCC(O)CC4)C(=O)C3)cc2c1 (stereo not drawn) [YD_0044] | – | 0.1 to 100 | > 3000 |
| Cc1nnc(C23CCC(NC(=O)c4oc5c(C(F)(F)F)cc(C6CC6)cc5c4Cl)(CC2)CC3)o1 [YD_0056] | – | 1000 to 5000 | > 3000 |
| Cc1nnc(C23CCC(NC(=O)c4oc5c(C(F)(F)F)cc(C6CC6)cc5c4Br)(CC2)CC3)o1 [YD_0057] | – | 100 to 1000 | > 3000 |
| Cc1nnc(C23CCC(NC(=O)c4oc5c(C(F)(F)F)cc(C6CC6)cc5c4C)(CC2)CC3)o1 [YD_0058] | – | 100 to 1000 | > 3000 |
| Cc1nnc(C23CCC(NC(=O)c4oc5c(C(F)(F)F)cc(C(C)C)cc5c4Cl)(CC2)CC3)o1 [YD_0059] | 0.1 to 100 | 100 to 1000 | > 3000 |
| CCCc1cc(C(F)(F)F)c2oc(C(=O)NC34CCC(c5nnc(C)o5)(CC3)CC4)c(Cl)c2c1 [YD_0060] | – | 100 to 1000 | > 3000 |
| O=C(NC12CCC(c3nnco3)(CC1)CC2)c1oc2c(C(F)(F)F)cc(C3CC3)cc2c1Cl [YD_0122] | 0.1 to 100 | 100 to 1000 | > 3000 |
| O=C(c1oc2c(C(F)(F)F)cc(C3CC3)cc2c1Cl)N1CCN(N2CCOC2=O)CC1 [YD_0214] | 0.1 to 100 | 0.1 to 100 | > 3000 |
| CC(C)c1cc(C(F)(F)F)c2oc(C(=O)N3CCN(N4CCOC4=O)CC3)c(Cl)c2c1 [YD_0215] | 0.1 to 100 | 0.1 to 100 | > 3000 |
| CCCc1cc(C(F)(F)F)c2oc(C(=O)N3CCN(N4CCOC4=O)CC3)c(Cl)c2c1 [YD_0216] | 0.1 to 100 | 0.1 to 100 | > 3000 |
| O=C(c1oc2c(C(F)(F)F)cc(C3CC3)cc2c1Cl)N1CCN(N2CCOC2=O)C(=O)C1 [YD_0219] | 0.1 to 100 | 0.1 to 100 | > 3000 |
| O=C(c1oc2c(F)cc(C3CC3)cc2c1Cl)N1CCN(N2CCOC2=O)CC1 [YD_0245] | 0.1 to 100 | 0.1 to 100 | > 3000 |
| N#Cc1c(C(=O)N2CCN(N3CCOC3=O)CC2)oc2c(C(F)(F)F)cc(C3CC3)cc12 [YD_0250] | 0.1 to 100 | 0.1 to 100 | > 3000 |

| SMILES | EC50 [1] [nM] | EC50 [2] [nM] | CC50 at 3 days [3] [nM] |
| --- | --- | --- | --- |
| O=C(c1oc2c(C(F)(F)F)cc(C3CC3)cc2c1Cl)N1CCN(C23CC(C2)C3)C(=O)C1 [YD_0253] | 100 to 1000 | 0.1 to 100 | > 3000 |
| O=C1CN(N2CCN(C(=O)c3oc4c(C(F)(F)F)cc(C5CC5)cc4c3Cl)CC2=O)C(=O)N1 [YD_0272] | 100 to 1000 | 100 to 1000 | > 3000 |
| CN(C)C(=O)C1CCN(C(=O)c2oc3c(C(F)(F)F)cc(C4CC4)cc3c2Cl)CC1 [YD_0273] | 0.1 to 100 | 0.1 to 100 | > 3000 |
| O=C(c1oc2c(C(F)F)cc(C3CC3)cc2c1Cl)N1CCN(N2CCOC2=O)CC1 [YD_0278] | 0.1 to 100 | 0.1 to 100 | > 3000 |
| O=C(c1oc2c(C(F)(F)F)cc(C3CC3)cc2c1Cl)N1CCCN(N2CCOC2=O)CC1 [YD_0279] | 0.1 to 100 | 0.1 to 100 | > 3000 |
| O=C(c1oc2c(C(F)(F)F)cc(C3CC3)cc2c1Cl)N1CCN(C23CCC(CC2)CC3)C(=O)C1 [YD_0280] | 100 to 1000 | 100 to 1000 | > 3000 |
| CC(C)N(C)C(=O)C1CCN(C(=O)c2oc3c(C(F)(F)F)cc(C4CC4)cc3c2Cl)CC1 [YD_0302] | 100 to 1000 | 1000 to 5000 | > 3000 |
| CCN(C)C(=O)C1CCN(C(=O)c2oc3c(C(F)(F)F)cc(C4CC4)cc3c2Cl)CC1 [YD_0304] | 100 to 1000 | 0.1 to 100 | > 3000 |
| CN1CCN(C(=O)C2CCN(C(=O)c3oc4c(C(F)(F)F)cc(C5CC5)cc4c3Cl)CC2)CC1 [YD_0305] | 100 to 1000 | 1000 to 5000 | > 3000 |
| C[C@H]1COCCN1C(=O)C1CCN(C(=O)c2oc3c(C(F)(F)F)cc(C4CC4)cc3c2Cl)CC1 [YD_0311] | 100 to 1000 | 100 to 1000 | > 3000 |
| CCOC(=O)NN1CCN(C(=O)c2oc3c(C(F)(F)F)cc(C4CC4)cc3c2Cl)CC1 [YD_0312] | 100 to 1000 | 100 to 1000 | > 3000 |
| O=C(c1oc2c(C(F)(F)F)cc(C3CC3)cc2c1Cl)N1CCC(C(=O)N2CCC2)CC1 [YD_0313] | 0.1 to 100 | 0.1 to 100 | > 3000 |
| CN(C)C(=O)C1(C)CCN(C(=O)c2oc3c(C(F)(F)F)cc(C4CC4)cc3c2Cl)CC1 [YD_0317] | 100 to 1000 | 1000 to 5000 | > 3000 |
| CC1(C(=O)N2CC(O)C2)CCN(C(=O)c2oc3c(C(F)(F)F)cc(C4CC4)cc3c2Cl)CC1 [YD_0318] | 100 to 1000 | 1000 to 5000 | > 3000 |
| CC1CN(C)CCN1C(=O)C1CCN(C(=O)c2oc3c(C(F)(F)F)cc(C4CC4)cc3c2Cl)CC1 (stereo not drawn) [YD_0321] | 100 to 1000 | 1000 to 5000 | > 3000 |
| CC1CNCCN1C(=O)C1CCN(C(=O)c2oc3c(C(F)(F)F)cc(C4CC4)cc3c2Cl)CC1 (stereo not drawn) [YD_0322] | 100 to 1000 | 100 to 1000 | > 3000 |
| CC1CN(C(=O)C2CCN(C(=O)c3oc4c(C(F)(F)F)cc(C5CC5)cc4c3Cl)CC2)CCO1 (stereo not drawn) [YD_0323] | 100 to 1000 | 100 to 1000 | > 3000 |
| O=C(c1oc2c(C(F)(F)F)cc(C3CC3)cc2c1Cl)N1CCC(C(=O)N2CC3CC3C2)CC1 (stereo not drawn) [YD_0324] | 0.1 to 100 | 0.1 to 100 | > 3000 |
| CC1CN(C(=O)C2CCN(C(=O)c3oc4c(C(F)(F)F)cc(C5CC5)cc4c3Cl)CC2)CCN1C (stereo not drawn) [YD_0325] | 100 to 1000 | 1000 to 5000 | > 3000 |
| CC1CN(C(=O)C2CCN(C(=O)c3oc4c(C(F)(F)F)cc(C5CC5)cc4c3Cl)CC2)CCN1 (stereo not drawn) [YD_0326] | 100 to 1000 | 1000 to 5000 | > 3000 |
| O=C(Nc1ccc(Cl)cn1)C1CCN(C(=O)c2oc3c(C(F)(F)F)cc(C4CC4)cc3c2Cl)CC1 [YD_0327] | 100 to 1000 | 1000 to 5000 | > 3000 |
| CN(C(=O)C1CCN(C(=O)c2oc3c(C(F)(F)F)cc(C4CC4)cc3c2Cl)CC1)c1ccc(F)cn1 [YD_0329] | 100 to 1000 | 100 to 1000 | > 3000 |
| O=C(c1oc2c(C(F)(F)F)cc(C3CC3)cc2c1Cl)N1CCC(=O)N(C2CCCC2)CC1 [YD_0330] | 100 to 1000 | 0.1 to 100 | > 3000 |
| O=C1CN(N2CCN(C(=O)c3oc4c(C(F)(F)F)cc(C5CC5)cc4c3Cl)CC2)C(=O)N1 [YD_0331] | 0.1 to 100 | 0.1 to 100 | > 3000 |
